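Five compound concentrations were applied to cells in 96-well plates for 48 hours; endpoints were derived by simple linear interpolation of the resulting dose-response curve. GI50: concentration for 50% inhibition of growth.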 Calls of active or inactive are those of the source. No stated cut-off is given here; in the data, active = GI50 up to about 1.1 µM and inactive = higher.
Columns and labels:
Assay in all cases: inhibition of tumour cell growth, NCI panel, 48 h
[1] = test system: UACC-257
[2] = test system: CAKI-1
[3] = test system: SK-MEL-2
[4] = test system: A549
[5] = test system: SK-MEL-28
[6] = test system: KM12
[7] = test system: OVCAR-8
[8] = test system: EKVX
[9] = test system: TK-10
[10] = test system: HCT-116
[11] = test system: NCI-H226
[12] = test system: OVCAR-5
[13] = test system: MOLT-4
[14] = test system: RPMI-8226
[15] = test system: M14
[16] = test system: SW-620
[17] = test system: NCI-H522

| Compound | GI50 [1] | GI50 [2] | GI50 [3] | GI50 [4] | GI50 [5] | GI50 [6] | GI50 [7] | GI50 [8] | GI50 [9] | GI50 [10] | GI50 [11] | GI50 [12] | GI50 [13] | GI50 [14] | GI50 [15] | GI50 [16] | GI50 [17] |
| --- | --- | --- | --- | --- | --- | --- | --- | --- | --- | --- | --- | --- | --- | --- | --- | --- | --- |
| O=C(O)/C(=C/c1ccccc1[N+](=O)[O-])c1ccccc1 | > 100 µM (inactive) | > 100 µM (inactive) | > 100 µM (inactive) | > 100 µM (inactive) | > 100 µM (inactive) | > 100 µM (inactive) | > 100 µM (inactive) | > 100 µM (inactive) | > 100 µM (inactive) | > 100 µM (inactive) | > 100 µM (inactive) | > 100 µM (inactive) | > 100 µM (inactive) | > 100 µM (inactive) | > 100 µM (inactive) | > 100 µM (inactive) | > 100 µM (inactive) |
| Cc1c(Cl)cccc1NC(=O)c1cccc([N+](=O)[O-])c1O | 8.51 µM (inactive) | 9.59 µM (inactive) | 10.7 µM (inactive) | 11.4 µM (inactive) | 9.68 µM (inactive) | 21.4 µM (inactive) | 21 µM (inactive) | 16 µM (inactive) | 41.8 µM (inactive) | 13.7 µM (inactive) | 15.5 µM (inactive) | > 43 µM (inactive) | 5.82 µM (inactive) | 3.24 µM (inactive) | 16.8 µM (inactive) | 28.2 µM (inactive) | 6.44 µM (inactive) |
| N#CCc1ccc(/C(C#N)=C2/OC(=N)C(c3ccc(CC#N)cc3)C2=O)cc1 (stereo not drawn) | > 100 µM (inactive) | > 100 µM (inactive) | > 100 µM (inactive) | > 100 µM (inactive) | > 100 µM (inactive) |  | > 100 µM (inactive) | > 100 µM (inactive) | > 100 µM (inactive) | > 100 µM (inactive) | > 100 µM (inactive) | > 100 µM (inactive) | > 100 µM (inactive) | > 100 µM (inactive) | > 100 µM (inactive) | > 100 µM (inactive) | > 100 µM (inactive) |
| CCOC(=O)Nc1cc2nnc(-c3ccccc3)nc2c(N)n1 | 15.7 µM (inactive) | 27.6 µM (inactive) | 11.4 µM (inactive) | 4.81 µM (inactive) | 16.2 µM (inactive) | 1.1 µM (active) | 23.6 µM (inactive) | 43.7 µM (inactive) | 37.5 µM (inactive) | 10.9 µM (inactive) | 24 µM (inactive) | 23.1 µM (inactive) |  | 24.3 µM (inactive) | 4.06 µM (inactive) | 14.6 µM (inactive) | > 10 µM (inactive) |
| CC(=O)Nc1ccc(-c2nnc(SCC(=O)Nc3ccccc3Cl)o2)cc1 | > 100 µM (inactive) | > 100 µM (inactive) | > 100 µM (inactive) | > 100 µM (inactive) | > 100 µM (inactive) | > 100 µM (inactive) | > 100 µM (inactive) |  | > 100 µM (inactive) | 44.1 µM (inactive) | > 100 µM (inactive) | > 100 µM (inactive) | > 100 µM (inactive) |  | > 100 µM (inactive) | > 100 µM (inactive) | > 100 µM (inactive) |
| CCP(C)(C)=O | > 100 µM (inactive) | > 100 µM (inactive) | > 100 µM (inactive) | > 100 µM (inactive) | > 100 µM (inactive) | > 100 µM (inactive) | > 100 µM (inactive) | > 100 µM (inactive) | > 100 µM (inactive) |  |  | > 100 µM (inactive) | > 100 µM (inactive) | > 100 µM (inactive) | > 100 µM (inactive) | > 100 µM (inactive) |  |
| COc1cc(OC)cc(-c2cc(O)c3cc4c(cc3n2)OCO4)c1 | 1.96 µM (inactive) | 0.309 µM (active) | 0.165 µM (active) | 0.428 µM (active) | 0.194 µM (active) | 0.17 µM (active) | 0.395 µM (active) | 12.6 µM (inactive) | 1.74 µM (inactive) | 0.169 µM (active) | 0.251 µM (active) | 4.35 µM (inactive) | 0.364 µM (active) | 0.389 µM (active) | 0.239 µM (active) | 0.203 µM (active) | 0.139 µM (active) |
| CCCCCCCCCc1cc(=O)c2c(O)cccc2o1 | 36.3 µM (inactive) | 69.3 µM (inactive) | 23.2 µM (inactive) | 41.8 µM (inactive) | 55.6 µM (inactive) | 40.6 µM (inactive) | 38.7 µM (inactive) | 51.8 µM (inactive) | 54 µM (inactive) | 30.3 µM (inactive) | 38.1 µM (inactive) | 38.8 µM (inactive) | 20.4 µM (inactive) | 38.2 µM (inactive) | 39.4 µM (inactive) | 57.9 µM (inactive) | 34.9 µM (inactive) |
| CC(=O)Nc1ccc(Cl)c(Cl)c1 | > 100 µM (inactive) |  |  | > 100 µM (inactive) | > 100 µM (inactive) | > 100 µM (inactive) | > 100 µM (inactive) | > 100 µM (inactive) | > 100 µM (inactive) | > 100 µM (inactive) | > 100 µM (inactive) |  | > 100 µM (inactive) | > 100 µM (inactive) | 40.4 µM (inactive) | > 100 µM (inactive) | > 100 µM (inactive) |
